Patent publication US12404285B2, “KRAS G12D proteolysis targeting chimeras” (PAQ Therapeutics Inc., priority 2022, dated 2025)

These compounds were tested against T1, KRAS (G12D)-HiBit in AsPc-1-KRAS (G12D)-HiBit-KI cell (Homo sapiens, UniProt P01116, G12D) (assay: G12D HiBit assay). Settings: 24 hours compound treatment, absolute DC50, read-out: Average PHA DC50.
T1 construct: host or cells: AsPc-1-KRAS (G12D)-HiBit-KI cells (knock-in line)
Assay type: cell-based
How it was run: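 AsPc-1 cells with HiBiT knocked into KRAS G12D, seeded at 5×10^3/well and held overnight, then treated 24 h with 10-point 3-fold dilutions (300 nM to 0.015 nM). Lytic Nano-Glo HiBiT luminescence expressed as % of 0.1% DMSO control; absolute DC50 from curve fit.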

T1 sequence (P01116 1-188 isoform P01116-2 G12D): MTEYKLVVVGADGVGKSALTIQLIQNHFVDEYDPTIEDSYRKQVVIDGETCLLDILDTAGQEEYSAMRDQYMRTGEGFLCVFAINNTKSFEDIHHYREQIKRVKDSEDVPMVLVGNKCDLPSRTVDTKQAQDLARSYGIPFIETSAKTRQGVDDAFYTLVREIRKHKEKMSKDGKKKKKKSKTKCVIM

Structure (SMILES) | DC50
C#Cc1c(F)ccc2cccc(-c3ncc4c(N5CC6CCC(C5)N6)nc(OC[C@@]56CCCN5[C@H](COC(=O)N5CCC(C7CCN(Cc8cccc9c8n(C)c(=O)n9C8CCC(=O)NC8=O)CC7)CC5)CC6)nc4c3F)c12 (stereo partly shown) [Compound 51] | < 100 nM
C#Cc1c(F)ccc2cccc(-c3ncc4c(N5CC6CCC(C5)N6)nc(OC[C@@]56CCCN5[C@H](COC(=O)N5CCC(Cn7cc(-c8cccc9c8n(C)c(=O)n9C8CCC(=O)NC8=O)nn7)CC5)CC6)nc4c3F)c12 (stereo partly drawn) [Compound 96, [(3S,8S)-8-[[4-(3,8-Diazabicyclo[3.2.1]octan-3-yl)-7-(8-ethynyl-7-fluoro-1-naphthyl)-8-fluoro-pyrido[4,3-d]pyrimidin-2-yl]oxymethyl]-1,2,3,5,6,7-hexahydropyrrolizin-3-yl]methyl 4-[[4-[1-(2,6-dioxo-3-piperidyl)-3-methyl-2-oxo-benzimidazol-4-yl]triazol-1-yl]methyl]piperidine-1-carboxylate] | ≥ 300 nM
C#Cc1c(F)ccc2cccc(-c3ncc4c(N5CC6CCC(C5)N6)nc(OC[C@@]56CCCN5[C@H](COC(=O)N5CCC7(CC5)CN(CC#Cc5cccc8c5n(C)c(=O)n8C5CCC(=O)NC5=O)CCO7)CC6)nc4c3F)c12 (stereo partly shown) [Compound 46] | ≥ 300 nM
C#Cc1c(F)ccc2cccc(-c3ncc4c(N5CC6CCC(C5)N6)nc(OC[C@@]56CCCN5[C@H](COC(=O)N5CCC(OCCCc7cccc8c7n(C)c(=O)n8C7CCC(=O)N(C)C7=O)CC5)CC6)nc4c3F)c12 (stereo partly drawn) [Compound 144, [(3S,8S)-8-[[4-(3,8-Diazabicyclo[3.2.1]octan-3-yl)-7-(8-ethynyl-7-fluoro-1-naphthyl)-8-fluoro-pyrido[4,3-d]pyrimidin-2-yl]oxymethyl]-1,2,3,5,6,7-hexahydropyrrolizin-3-yl]methyl 4-[3-[3-methyl-1-(1-methyl-2,6-dioxo-3-piperidyl)-2-oxo-benzimidazol-4-yl]propoxy]piperidine-1-carboxylate] | ≥ 300 nM
C#Cc1c(F)ccc2cccc(-c3ncc4c(N5CC6CCC(C5)N6)nc(OC[C@@]56CCCN5[C@H](COC(=O)N5CCC7(CC5)CC(CCc5ccc8c(c5)n(C)c(=O)n8C5CCC(=O)NC5=O)C7)CC6)nc4c3F)c12 (stereo partly shown) [Compound 67] | < 100 nM
C#Cc1c(F)ccc2cccc(-c3ncc4c(N5CC6CCC(C5)N6)nc(OC[C@@]56CCCN5[C@H](COC(=O)N5CCC(N7CCC(Oc8cccc9c8n(C)c(=O)n9C8CCC(=O)NC8=O)CC7)CC5)CC6)nc4c3F)c12 (stereo partly shown) [Compound 66] | < 100 nM
C#Cc1c(F)ccc2cccc(-c3ncc4c(N5CC6CCC(C5)N6)nc(OC[C@@]56CCCN5[C@H](COC(=O)N5CCC(OC7CN(Cc8cccc9c8n(C)c(=O)n9C8CCC(=O)NC8=O)C7)CC5)CC6)nc4c3F)c12 (stereo partly drawn) [Compound 54, [(3S,8S)-8-[[4-(3,8-Diazabicyclo[3.2.1]octan-3-yl)-7-(8-ethynyl-7-fluoro-1-naphthyl)-8-fluoro-pyrido[4,3-d]pyrimidin-2-yl]oxymethyl]-1,2,3,5,6,7-hexahydropyrrolizin-3-yl]methyl 4-[1-[[1-(2,6-dioxo-3-piperidyl)-3-methyl-2-oxo-benzimidazol-4-yl]methyl]azetidin-3-yl]oxypiperidine-1-carboxylate] | < 100 nM
C#Cc1c(F)ccc2cccc(-c3ncc4c(N5CC6CCC(C5)N6)nc(OC[C@@]56CCCN5[C@H](COC(=O)N5CCC(OCCCCCc7cccc8c7n(C)c(=O)n8C7CCC(=O)NC7=O)CC5)CC6)nc4c3F)c12 (stereo partly drawn) [Compound 122, [(3S,8S)-8-[[4-(3,8-diazabicyclo[3.2.1]octan-3-yl)-7-(8-ethynyl-7-fluoro-1-naphthyl)-8-fluoro-pyrido[4,3-d]pyrimidin-2-yl]oxymethyl]-1,2,3,5,6,7-hexahydropyrrolizin-3-yl]methyl4-[5-[1-(2,6-dioxo-3-piperidyl)-3-methyl-2-oxo-benzimidazol-4-yl]pentoxy]piperidine-1-carboxylate] | < 100 nM
C#Cc1c(F)ccc2cccc(-c3ncc4c(N5CC6CCC(C5)N6)nc(OC[C@@]56CCCN5[C@H](COC(=O)N(C)CCC5CCN(Cc7cccc8c7n(C)c(=O)n8C7CCC(=O)NC7=O)CC5)CC6)nc4c3F)c12 (stereo partly drawn) [Compound 134, [(3S,8S)-8-[[4-(3,8-diazabicyclo[3.2.1]octan-3-yl)-7-(8-ethynyl-7-fluoro-1-naphthyl)-8-fluoro-pyrido[4,3-d]pyrimidin-2-yl]oxymethyl]-1,2,3,5,6,7-hexahydropyrrolizin-3-yl]methyl N-[2-[1-[[1-(2,6-dioxo-3-piperidyl)-3-methyl-2-oxo-benzimidazol-4-yl]methyl]-4-piperidyl]ethyl]-N-methyl-carbamate] | < 100 nM
C#Cc1c(F)ccc2cccc(-c3ncc4c(N5CC6CCC(C5)N6)nc(OC[C@@]56CCCN5[C@H](COC(=O)N5CCC(OCCCCCc7ccc8c(c7)n(C)c(=O)n8C7CCC(=O)NC7=O)CC5)CC6)nc4c3F)c12 (stereo partly drawn) [Compound 120, [(3S,8S)-8-[[4-(3,8-Diazabicyclo[3.2.1]octan-3-yl)-7-(8-ethynyl-7-fluoro-1-naphthyl)-8-fluoro-pyrido[4,3-d]pyrimidin-2-yl]oxymethyl]-1,2,3,5,6,7-hexahydropyrrolizin-3-yl]methyl 4-[5-[1-(2,6-dioxo-3-piperidyl)-3-methyl-2-oxo-benzimidazol-5-yl]pentoxy]piperidine-1-carboxylate] | < 100 nM
C#Cc1c(F)ccc2cccc(-c3ncc4c(N5CC6CCC(C5)N6)nc(OC[C@@]56CCCN5[C@H](COC(=O)N5CCC(COC7CN(c8ccc9c(c8)n(C)c(=O)n9C8CCC(=O)NC8=O)C7)CC5)CC6)nc4c3F)c12 (stereo partly drawn) [Compound 102, [(3S,8S)-8-[[4-(3,8-Diazabicyclo[3.2.1]octan-3-yl)-7-(8-ethynyl-7-fluoro-1-naphthyl)-8-fluoro-pyrido[4,3-d]pyrimidin-2-yl]oxymethyl]-1,2,3,5,6,7-hexahydropyrrolizin-3-yl]methyl4-[[1-[1-(2,6-dioxo-3-piperidyl)-3-methyl-2-oxo-benzimidazol-5-yl]azetidin-3-yl]oxymethyl]piperidine-1-carboxylate] | < 100 nM
C#Cc1c(F)ccc2cccc(-c3ncc4c(N5CC6CCC(C5)N6)nc(OC[C@@]56CCCN5[C@H](COC(=O)N5CCC(CN7CCN(c8ccc9c(c8)n(C)c(=O)n9C8CCC(=O)NC8=O)CC7)CC5)CC6)nc4c3F)c12 (stereo partly shown) [Compound 106] | < 100 nM

Results, then the compound that gave them:

DC50 | Structure (SMILES)
< 100 nM | C#Cc1c(F)ccc2cccc(-c3ncc4c(N5CC6CCC(C5)N6)nc(OC[C@@]56CCCN5[C@H](COC(=O)N5CCC(OC7CN(Cc8ccc9c(c8)n(C)c(=O)n9C8CCC(=O)NC8=O)C7)CC5)CC6)nc4c3F)c12 (stereo partly shown) [Compound 74]
< 100 nM | C#Cc1c(F)ccc2cccc(-c3ncc4c(N5CC6CCC(C5)N6)nc(OC[C@@]56CCCN5[C@H](COC(=O)N5CCC(CC7CCN(Cc8ccc9c(c8)n(C)c(=O)n9C8CCC(=O)NC8=O)CC7)CC5)CC6)nc4c3F)c12 (stereo partly shown) [Compound 47]
< 100 nM | C#Cc1c(F)ccc2cccc(-c3ncc4c(N5CC6CCC(C5)N6)nc(OC[C@]56CCCN5[C@@H](COC(=O)N5CCC(CN7CCC(c8ccc9c(c8)n(C)c(=O)n9C8CCC(=O)NC8=O)CC7)CC5)CC6)nc4c3F)c12 (stereo partly shown) [Compound 76]
≥ 300 nM | C#Cc1c(F)ccc2cccc(-c3ncc4c(N5CC6CCC(C5)N6)nc(OC[C@@]56CCCN5[C@H](COC(=O)N5CCC(CCCCc7ccc8c(c7)n(C)c(=O)n8C7CCC(=O)NC7=O)CC5)CC6)nc4c3F)c12 (stereo partly shown) [Compound 43]
≥ 300 nM | C#Cc1c(F)ccc2cccc(-c3ncc4c(N5CC6CCC(C5)N6)nc(OC[C@@]56CCCN5[C@H](COC(=O)NCCOCCN5CCN(c7cccc8c7n(C)c(=O)n8C7CCC(=O)NC7=O)CC5)CC6)nc4c3F)c12 (stereo partly drawn) [Compound 123, [(3S,8S)-8-[[4-(3,8-diazabicyclo[3.2.1]octan-3-yl)-7-(8-ethynyl-7-fluoro-1-naphthyl)-8-fluoro-pyrido[4,3-d]pyrimidin-2-yl]oxymethyl]-1,2,3,5,6,7-hexahydropyrrolizin-3-yl]methyl N-[2-[2-[4-[1-(2,6-dioxo-3-piperidyl)-3-methyl-2-oxo-benzimidazol-4-yl]piperazin-1-yl]ethoxy]ethyl]carbamate]
< 100 nM | C#Cc1c(F)ccc2cccc(-c3ncc4c(N5CC6CCC(C5)N6)nc(OC[C@@]56CCCN5[C@H](COC(=O)N5CCC(OC7CCN(Cc8cccc9c8n(C)c(=O)n9C8CCC(=O)NC8=O)CC7)CC5)CC6)nc4c3F)c12 (stereo partly drawn) [Compound 130, [(3S,8S)-8-[[4-(3,8-Diazabicyclo[3.2.1]octan-3-yl)-7-(8-ethynyl-7-fluoro-1-naphthyl)-8-fluoro-pyrido[4,3-d]pyrimidin-2-yl]oxymethyl]-1,2,3,5,6,7-hexahydropyrrolizin-3-yl]methyl4-[[1-[[1-(2,6-dioxo-3-piperidyl)-3-methyl-2-oxo-benzimidazol-4-yl]methyl]-4-piperidyl]oxy]piperidine-1-carboxylate]
< 100 nM | C#Cc1c(F)ccc2cccc(-c3ncc4c(N5CC6CCC(C5)N6)nc(OC[C@@]56CCCN5[C@H](COC(=O)N5CCC(OCCC#Cc7cccc8c7n(C)c(=O)n8C7CCC(=O)NC7=O)CC5)CC6)nc4c3F)c12 (stereo partly drawn) [Compound 107, [(3S,8S)-8-[[4-(3,8-diazabicyclo[3.2.1]octan-3-yl)-7-(8-ethynyl-7-fluoro-1-naphthyl)-8-fluoro-pyrido[4,3-d]pyrimidin-2-yl]oxymethyl]-1,2,3,5,6,7-hexahydropyrrolizin-3-yl]methyl 4-[4-[1-(2,6-dioxo-3-piperidyl)-3-methyl-2-oxo-benzimidazol-4-yl]but-3-ynoxy]piperidine-1-carboxylate]
